Test results as given in patent publication US7629361B2, “Salt of (S)-pantoprazole and its hydrates” (NYCOMED GmbH, priority 2002, dated 2009).
Entries after “also recorded” stand apart in the source; their conditions may differ.

Tests used:
[1] = biological target: T1, Recombinant CYP 2C19 (Homo sapiens, UniProt P33261); assay: Metabolization on recombinant CYP 2C19; assay type: in vitro ADME; conditions: 10 μM, 0.1 mg/ml protein, 120 min, n=3
T1 construct: purchased GENTEST
Experimental: (§1) I) Human liver microsomes: Pantoprazole racemate and the (+)- and (−)-enantiomers (10 μM each) were incubated with human liver microsomes (source: TEBU, incubation in 1 mg/ml protein, 100 mM Tris-HCl, pH 7.4, 1 mM NADPH2). Reaction was terminated after 30 and 120 minutes by liquid nitrogen, the parent compound was detected by HPLC (10 mM KH2PO4, pH 7.4, acetonitril gradient 20-48%).
II) Recombinant CYP 2C19 (source: GENTEST); incubation method as described under I) (in presence of 0.1 mg/ml protein).

[2] = system: human liver microsomes; assay: Metabolization on human liver microsomes; assay type: in vitro ADME; conditions: 10 μM, 1 mg/ml protein, 120 min, n=3
Experimental: as §1

[3] = Hygroscopicity / water content of the salts; assay type: physicochemical; conditions: depending on drying conditions and atmospheric humidity
Experimental: Drying was carried out in a vacuum drying cabinet at <50 mbar and 40-45° C. [It is also possible to dispense with drying and to use the moist product (having an MIBK content of 10-20%) directly for step B].

[4] = Storage stability of the solid salts at elevated temperature
[5] = Wettability, dissolution rate and solubility compared to racemic pantoprazole magnesium dihydrate
[6] = system: pentagastrin-stimulated acid output in the Ghosh-Schild rat; assay: Inhibition of acid output in the Ghosh-Schild rat after i.v. administration; assay type: in vivo; conditions: 1 μmol/kg i.v. 3 hours prior to pentagastrin stimulation; 3 to 7.5 hours after administration; FIG. 3; listed as (−)-enantiomer, Dihydrate
Experimental: Female Sprague Dawley CD rats (190-210 g body weight) were anaesthetised with 1.5 g/kg i.m. of urethane, in 5 ml/kg physiologic saline. The trachea was intubated and both, the left external jugular vein (for drug administration) and left femoral vein (for pentagastrin infusion) were cannulated. An esophagus/cardia-cannula (diameter: 1.7 mm) was inserted transorally, and a pylorus-cannula (diameter: 2.6 mm) was inserted through the duodenum, and both were secured with a ligature. The pyloric catheter was led through the right abdominal wall. Body temperature was maintained at 37.0±0.2° C. by means of infrared radiation and electric cushion (automatic infinite control via rectal temperature probe). After thorough flushing (about 50-100 ml), the stomach was continuously perfused with 0.5 ml/min of physiologic saline (37° C.). In the effluate, collected at 15 min intervals, the pH as well as the acid output were determined, the latter by titration to pH 7 with freshly prepared 0.01 N NaOH.
Gastric secretion was stimulated by a continuous intravenous infusion (left femoral vein) of 1 μg/kg×min pentagastrin (in 1.6 ml/h physiologic saline) starting after determination of two basal values of acid secretion, i.e., 30 min after commencement of stomach perfusion. See horizontal bars in FIGS. 1 and 2 for pentagastrin-infusion. […]

T1 sequence (P33261 whole entry): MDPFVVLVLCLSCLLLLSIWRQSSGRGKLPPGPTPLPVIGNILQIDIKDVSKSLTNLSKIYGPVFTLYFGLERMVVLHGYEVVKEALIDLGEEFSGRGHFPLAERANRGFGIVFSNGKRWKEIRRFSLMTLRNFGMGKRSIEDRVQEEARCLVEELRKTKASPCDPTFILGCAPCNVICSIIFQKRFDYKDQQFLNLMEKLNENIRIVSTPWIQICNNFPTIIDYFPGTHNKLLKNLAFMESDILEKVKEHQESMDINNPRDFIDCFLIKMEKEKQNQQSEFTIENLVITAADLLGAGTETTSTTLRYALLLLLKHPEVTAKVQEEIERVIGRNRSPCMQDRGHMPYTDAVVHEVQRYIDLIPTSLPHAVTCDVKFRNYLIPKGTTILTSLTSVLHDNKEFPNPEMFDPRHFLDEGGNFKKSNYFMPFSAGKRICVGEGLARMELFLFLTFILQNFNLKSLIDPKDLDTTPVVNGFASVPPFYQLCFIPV

Row | Molecule | metabolized on CYP2C19 (mean) [1] | metabolized on human microsomes (mean) [2] | water content [3] | hygroscopicity (absorption of water) [3] | other results
1 | COc1ccnc(C[S+]([O-])c2nc3ccc(OC(F)F)cc3[nH]2)c1OC (racemic) [racemate, 5-difluoromethoxy-2-[(3,4-dimethoxy-2-pyridinyl)methylsulphinyl]-1H-benzimidazole] | 67% | 44% |  |  | 
2 | COc1ccnc(C[S+]([O-])c2nc3ccc(OC(F)F)cc3[nH]2)c1OC (single isomer, unassigned; (+)) [(+) enantiomer] | 64% | 44% |  |  | 
3 | COc1ccnc(C[S+]([O-])c2nc3cc(OC(F)F)ccc3[nH]2)c1OC (single isomer, unassigned; (-)) [(−)-Pantoprazole, (−)-[5-(difluoromethoxy)]-2-[(3,4-dimethoxy-2-pyridinyl)methylsulphinyl]-1H-benzimidazole] | 54% | 26% |  |  | 
4 | COc1ccnc(C[S+]([O-])c2nc3cc(OC(F)F)ccc3[n-]2)c1OC.COc1ccnc(C[S+]([O-])c2nc3cc(OC(F)F)ccc3[n-]2)c1OC.[Ca+2] (single isomer, unassigned; (-)) [(−)-pantoprazole calcium] |  |  | 4-8% |  | 
5 | COc1ccnc(C[S+]([O-])c2nc3cc(OC(F)F)ccc3[n-]2)c1OC.[Na+] (single isomer, unassigned; (-)) [(−)-pantoprazole sodium] |  |  |  | absorbs water | purity (according to HPLC) after storage ([4]; storage at 60-70° C., atmospheric conditions, starting purity 99.5%): 96-97%; hygroscopicity (absorption of water) ([3]; listed as (−)-Pantoprazole-Na): hygroscopic
6 | Magnesium (−)-bis{[5-(difluoromethoxy)]-2-[(3,4-dimethoxy-2-pyridinyl)methylsulphinyl]-1H-benzimidazolide} Dihydrate [(−)-pantoprazole magnesium dihydrate] |  |  | about 4.4% | non-hygroscopic | stability (discolouration, decomposition) on storage ([4]; 70° C., one week): completely stable; sum of by-products on storage ([4]; storage under atmospheric conditions, 60-70° C.): remains virtually constant; wettability compared to racemic pantoprazole magnesium dihydrate [5]: better wettability; dissolution rate compared to racemic pantoprazole magnesium dihydrate ([5]; pH 7-7.4): considerably higher dissolution rate; solubility relative to racemic pantoprazole magnesium dihydrate ([5]; pH 10): about tenfold; inhibition of acid secretion, Experiment 2, compared to the (+)-enantiomer [6]: significantly superior; also recorded: significantly more effective
